From patent US10568819B2, “Skin enhancing compositions and methods” (Sytheon Limited, priority 2016, dated 2020)
pIC50: −log10 of the molar value. Where two headings read alike, the source gives them in different places.

What was measured:
[1] = test system: ITGB3; assay: PCR array gene expression, ITGB3; format: cell-based
Source text: (§1) In light of the efficacy of the aryl alkanones ire addressing many of the molecular/biomolecular processes damaged by UV exposure, a study was undertaken to assess whether these compounds would also be effective in addressing symptoms associated with non-UV induced skin aging including chronological aging as well as disease conditions that likewise adversely affect skin processes. The studies conducted involves DNA microarray, PCR array, cell culture, enzyme inhibitory activity.

[2] = biological target: iNOS (Homo sapiens, UniProt P35228); assay: Reduction of iNOS activity; format: biochemical
Source text: Accordingly, an investigation was undertaken to assess the efficacy of compounds according to the present teaching as compared to compounds that are closely structurally related thereto in inhibiting NO product.

[3] = biological target: T1, MMP-1 enzyme (Homo sapiens, UniProt P03956); assay: MMP-1 inhibition; format: biochemical; details: read-out: Inhibitory concentration (IC50), MMP-1
T1 construct: purchased Anaspec
Procedure: Another study was conducted in which the elastin and MMP activity of Compound 1 was evaluated. The methodology for the study of MMP-1 and MMP-3 activity was as follows: • A 0.1 g sample of Compound 1 was dissolved in 1 ml DMSO, then it was diluted 100× with Tris buffer (50 mM Iris pH 7.5, 150 mM NaCl, 2 mM CaCl2, 5μ ZnO4, 0.01% Brij-35) to make a stock solution. For the analysis, different concentrations of Compound 1 were used to determine the IC50. The sample and 100 ng/ml MMP-1 enzyme (Anaspec) or MMP-3 enzyme (Anaspec) were incubated at 37° C. for 10 minutes before the addition of 2.25 μM PEPDAB008 substrate (Biozyme). The fluorescence signal was monitored at excitation of 485 nm and emission of 530 nm.

[4] = test system: LAMA4; assay: DNA microarray gene expression, LAMA4; format: cell-based
Source text: as §1

[5] = test system: Keratinocytes; assay: UVA- and UVB-induced formation of immediate CPDs (iCPDs) in keratinocytes; format: cell-based; details: 25 μg/ml
Procedure: (§2) Given the significance of CPDs in skin aging and damage, a study was undertaken to determine whether compounds of the present invention have the ability to directly protect the genome of skin cells from the mutagenic effect of UV light as evidenced by CPDs inhibition. The study was conducted in accordance with the method described by Mitchell et. al. [Mitchell, D L, The relative cytotoxicity of (6-4) photoproducts and cyclobutane dimers in mammalian cells. Photochem Photobiol, 48(1):51-57, 1988)] pursuant to which UVA- and UVB-induced formation of immediate CPDs (iCPDs) were determined.

[6] = test system: Fibroblasts; assay: UVA-induced delayed formation of CPDs (dCPDs) in fibroblasts; format: cell-based; details: 25 μg/ml, product incubated for 24 hrs. plus UVA irradiation
Procedure: (§3) A second study was carried out, similar to the first, except that this time the analysis was in assessing the efficacy, if any, of the presently taught aryl alkanones in reducing UVA-induced delayed formation of CPDs (dCPDs).

[7] = test system: COL14A1; assay: DNA microarray gene expression, COL14A1; format: cell-based
Source text: as §1

[8] = test system: COL5A1; assay: DNA microarray gene expression, COL5A1; format: cell-based
Source text: as §1

[9] = test system: POT1; assay: DNA microarray gene expression, POT1; format: cell-based
Source text: as §1

[10] = test system: COL14A1; assay: PCR array gene expression, COL14A1; format: cell-based
Source text: as §1

[11] = test system: COL1A1; assay: DNA microarray gene expression, COL1A1; format: cell-based
Source text: as §1

[12] = test system: ITGA1; assay: PCR array gene expression, ITGA1; format: cell-based
Source text: as §1

[13] = test system: human dermal fibroblasts; assay: UVA-induced plasma membrane disruption (Mitochondrial ToxGlo Assay); format: cell-based; details: 24 hour Pre-incubation
Procedure: (§4) The study was conducted in accordance with the protocols of Berridge et al, (M V Berridge & A S Tan, Characterization of the cellular reduction of 3-(4,5-dimethylthiazol-2-yl)-2,5-diphenyltetrazolium bromide (MTT): subcellular localization, substrate dependence, and involvement of mitochondrial electron transport in MTT reduction, Arch. Biochem. Biophys. 303:474-482, 1993) and Voigt (W Voigt, Sulforhodamine B assay and chemosensitivity, Methods Mol Med, 110:39-48, 2005). Cellular metabolism is determined using the MTT assay to measure the activity of mitochondrial dehydrogenases, such as succinate dehydrogenase, which are implicated in the respiratory electron transport chain in mitochondria [M V Berridge & Tan Biochem Biophys, 303:474-482, 1993]. Additionally, the samples were subject to the Mitochondrial ToxGlo Assay (Promega Technical Manual, G8000 and G8001), which is a cell-based assay method that has been developed to quantify potential mitochondrial dysfunction as a result of xenobiotic exposure, using a sequential-addition, multiplexed chemistry.
(§5) Table 8 presents the result on the effect of UVA radiation on cell metabolism 3 hours after irradiation. As indicated, Compound 1 improves cell metabolism, even at a very low use concentration. Table 9 presents the effect of 24 hour pre-incubation on UVA-induced mitochondrial damage measured by ATP production in human dermal fibroblasts. […] Finally. Table 10 presents the effect of 24 hour pre-incubation on UVA-induced plasma membrane disruption in human dermal fibroblasts. As indicated, Compound 1 almost completely reversed plasma membrane disruption, again at a very low use concentration.

[14] = test system: TIMP2; assay: DNA microarray gene expression, TIMP2; format: cell-based
Source text: as §1

[15] = test system: human dermal fibroblasts; assay: UVA-induced mitochondrial damage measured by ATP production (Mitochondrial ToxGlo Assay); format: cell-based; details: 24 h pre-incubation
Procedure: as §4, §5

[16] = test system: NOX; details: Keratinocytes
[17] = test system: Fibroblasts; assay: UVA- and UVB-induced formation of immediate CPDs (iCPDs) in fibroblasts; format: cell-based; details: UVA, 25 μg/ml
Procedure: as §2

[18] = test system: COL3A1; assay: DNA microarray gene expression, COL3A1; format: cell-based
Source text: as §1

[19] = test system: Melanocytes; assay: UVA-induced delayed formation of CPDs (dCPDs) in melanocytes; format: cell-based; details: 25 μg/ml, UVA irradiation first then product added
Procedure: as §3

[20] = test system: FBLN1; assay: DNA microarray gene expression, FBLN1; format: cell-based
Source text: as §1

[21] = test system: COL6A3; assay: DNA microarray gene expression, COL6A3; format: cell-based
Source text: as §1

[22] = test system: TIMP4; assay: DNA microarray gene expression, TIMP4; format: cell-based
Source text: as §1

T1 sequence (P03956 100-469, species assumed): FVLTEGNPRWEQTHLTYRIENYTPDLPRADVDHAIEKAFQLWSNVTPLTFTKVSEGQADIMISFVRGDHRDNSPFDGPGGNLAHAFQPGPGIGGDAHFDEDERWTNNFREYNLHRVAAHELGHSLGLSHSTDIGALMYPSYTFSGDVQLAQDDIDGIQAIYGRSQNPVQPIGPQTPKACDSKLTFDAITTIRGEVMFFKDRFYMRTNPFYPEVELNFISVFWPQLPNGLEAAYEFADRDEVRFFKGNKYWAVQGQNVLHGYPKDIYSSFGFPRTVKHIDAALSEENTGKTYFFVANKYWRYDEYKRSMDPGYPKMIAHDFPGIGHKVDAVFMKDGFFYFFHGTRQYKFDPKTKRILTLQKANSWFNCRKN
Chain of iNOS (P35228 whole entry, species assumed): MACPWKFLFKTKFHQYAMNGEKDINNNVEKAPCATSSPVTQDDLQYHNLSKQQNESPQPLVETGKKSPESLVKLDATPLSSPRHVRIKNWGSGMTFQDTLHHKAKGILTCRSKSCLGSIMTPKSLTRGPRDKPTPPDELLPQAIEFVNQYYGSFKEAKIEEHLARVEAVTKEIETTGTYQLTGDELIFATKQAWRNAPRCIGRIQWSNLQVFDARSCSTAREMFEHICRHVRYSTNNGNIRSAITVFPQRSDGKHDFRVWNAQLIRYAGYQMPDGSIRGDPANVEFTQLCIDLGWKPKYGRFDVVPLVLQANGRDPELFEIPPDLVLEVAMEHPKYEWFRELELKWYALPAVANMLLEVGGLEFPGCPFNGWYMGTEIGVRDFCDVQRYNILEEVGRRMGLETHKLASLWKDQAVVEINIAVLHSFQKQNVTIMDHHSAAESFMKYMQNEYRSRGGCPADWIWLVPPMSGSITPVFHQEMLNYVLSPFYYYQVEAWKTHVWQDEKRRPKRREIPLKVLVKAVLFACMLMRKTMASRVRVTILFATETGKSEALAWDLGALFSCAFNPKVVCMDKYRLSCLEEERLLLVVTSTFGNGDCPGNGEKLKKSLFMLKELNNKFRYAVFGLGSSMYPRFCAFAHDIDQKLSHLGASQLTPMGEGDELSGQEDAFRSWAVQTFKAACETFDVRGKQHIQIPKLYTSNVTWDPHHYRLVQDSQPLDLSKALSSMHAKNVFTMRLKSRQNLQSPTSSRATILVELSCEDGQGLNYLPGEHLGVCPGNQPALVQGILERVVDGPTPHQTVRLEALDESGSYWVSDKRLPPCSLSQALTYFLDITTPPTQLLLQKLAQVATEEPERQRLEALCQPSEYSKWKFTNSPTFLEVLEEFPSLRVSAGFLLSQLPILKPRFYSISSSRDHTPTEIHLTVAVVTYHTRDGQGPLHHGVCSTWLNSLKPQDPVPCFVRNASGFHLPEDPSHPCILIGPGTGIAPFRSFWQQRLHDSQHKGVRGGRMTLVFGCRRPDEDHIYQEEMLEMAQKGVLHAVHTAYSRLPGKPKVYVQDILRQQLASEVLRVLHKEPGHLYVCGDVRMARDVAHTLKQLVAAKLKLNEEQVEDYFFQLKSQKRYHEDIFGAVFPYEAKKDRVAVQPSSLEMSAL

Compound: COc1cc(CC(C(C)=O)C(C)=O)ccc1O [Compound 1, Acetyl Zingerone]
- PCR array, ITGB3 gene expression [1]: +2.0
- pIC50 [2]: 3.71
- pIC50 [3]: 2.38
- Microarray, LAMA4 gene expression [4]: +1.7
- UVA/% Reduction in iCPDs vs. Control ([5]; UVA): 73%
- UVB/% Reduction iCPDs vs. Control ([5]; UVB): 44%
- UVA/% Reduction in dCPDs vs. control, 0 hr. (Reduction in iCPDs) ([6]; 0 hr.): ^+0 hr.: ↓45%
- UVA/% Reduction in dCPDs vs. control, 1 hr. ([6]; 1 hr.): 1 hr.: ↓20%
- UVA/% Reduction in dCPDs vs. control, 2 hr. ([6]; 2 hr.): 2 hr.: ↓18%
- Microarray, COL14A1 gene expression [7]: +4.3
- Microarray, COL5A1 gene expression [8]: +4.1
- Microarray, POT1 gene expression [9]: +2.9
- PCR array, COL14A1 gene expression [10]: +2.1
- Microarray, COL1A1 gene expression [11]: +1.6
- PCR array, ITGA1 gene expression [12]: +2.2
- Plasma membrane disruption-related fluorescence (% Control) ([13]; 6.25 ug/ml): 125 % Control
- Plasma membrane disruption-related fluorescence (% Control) ([13]; 12.5 ug/ml): 130 % Control
- Plasma membrane disruption-related fluorescence (% Control) ([13]; 25 ug/ml): 117 % Control
- Microarray, TIMP2 gene expression [14]: +1.5
- ATP-related chemoluminescence (% Control) ([15]; 6.25 ug/ml): 94 % Control
- Comments: % damage ([15]; 6.25 ug/ml): Only 6%
- ATP-related chemoluminescence (% Control) ([15]; 12.5 ug/ml): 87 % Control
- Comments: % damage ([15]; 12.5 ug/ml): Only 13%
- reduction of NOX activity ([16]; UVA, 25 μg/ml): −27%
- reduction of NOX activity ([16]; UVA, 50 μg/ml): −38%
- reduction of NOX activity ([16]; UVB, 25 μg/ml): −11%
- reduction of NOX activity ([16]; UVB, 50 μg/ml): −29%
- UVA/% Reduction in iCPDs vs. Control [17]: 45%
- Microarray, COL3A1 gene expression [18]: +1.7
- UVA/% Reduction in dCPDs vs. control, 1 hr. ([19]; 1 hr.): 1 hr.: ↓70%
- UVA/% Reduction in dCPDs vs. control, 2 hr. ([19]; 2 hr.): 2 hr.: ↓25%
- UVA/% Reduction in dCPDs vs. control, 4 hr. ([19]; 4 hr.): 4 hr.: ~0%
- Microarray, FBLN1 gene expression [20]: +1.9
- Microarray, COL6A3 gene expression [21]: +1.8
- Microarray, TIMP4 gene expression [22]: +1.6
